Results as given in patent US20100168228A1, “NOVEL CHEMOTHERAPEUTIC AGENTS AGAINST INFLAMMATION AND CANCER” (RELIANCE LIFE SCIENCES PVT. LTD., priority 2006, published 2010).

Columns and labels:
[1] = tested on: COX-2; experiment: COX-2 protein expression (ELISA); format: cell-based
Experimental: FIG. 6: Effect of CAMVE on TNF or LPS induced COX-2 expression. Cells were pretreated with indicated concentrations of CAMVE for 3 h and then stimulated with either TNF (0.1 nM) or SA-LPS (100 ng/ml) for 12 h. After harvesting the treated cells, the cellular lysates were checked for COX-2 protein expression by an enzyme immunoassay as described in the “Materials and Methods”.
Quantitative detection of Cox 2 protein expression by activated cells was done by an enzyme-linked immunosorbent sandwich assay using Zymed COX-2 ELISA kit. 1×10^7 cells were treated with different concentrations of CAMVE and stimulator and incubated at 37° C. for 12 hrs. […] The protein concentrations of the supernatants were measured by Bradford assay (Anal. Biochem. 72:248-254 (1976). 200 μg/100 μl of the protein was assayed per sample according to the kit protocol. Briefly, 100 μl of the sample and the standard were put in the pre antibody coated wells and incubated at 1 h at 37° C. After three washes 100 μl of the HRP conjugated antibody was added and incubated for 30 m is at 4° C. After washing, […] of the TMB substrate was added and incubated for 30 min at room temperature in dark. The reaction was stopped and the absorbance was read at 450 nm.

[2] = tested on: Cyclin D1; experiment: Cyclin D1 mRNA, semi-quantitative RT-PCR; format: cell-based, human; conditions: various concentrations
Experimental: FIG. 10: Effect of CAMVE on Cell Cycle distribution. A. 5×10^5 cells were treated with indicated concentrations of CAMVE as indicated and cell cycle analyses were performed using Flow Cytometry as described in the “Materials and Methods”. The percentage of cells in G1, S, and G2-M phase were calculated using Cell Quest analysis software and are represented within the histograms. The data shown here are from a representative experiment repeated three times with similar results. B. Expression of human Cyclin D1, was assayed by semi quantitative RT-PCR analysis with GAPDH as internal control. […]
Total RNA was isolated using the standard TRIzol method (Gibco BRL). Briefly, 3×10^6 cells were treated with different concentrations of the compounds as indicated in the legends to Figures and after harvesting the cell pellet was resuspended in 1 ml of TRIzol with repeated pipetting. The homogenized sample was incubated at RT for 5 min to permit complete dissociation of the nucleoprotein complexes. 200 μl of chloroform was added and the tubes were shaken vigorously for 15 sec by hand and then incubated at RT for 3 mins. The samples were then centrifuged at 10,000 RPM for 15 mins at 4° C. […]
Changes in gene expression were verified by semi-quantitative RT-PCR using GAPDH as an internal normalization standard. 1 μg of total RNA (quantified by spectrophotometer) was used to reverse transcribe into cDNA. […]

## COC(=O)c1ccc(OC(=O)/C=C/c2ccc(O)c(O)c2)c(OC)c1 [compound 1, Methyl 4-{[(2E)-3-(3,4-dihydroxyphenyl)prop-2-enoyl]oxy}-3-methoxybenzoate]
[1]; CAMVE alone
  COX-2 protein induction by compound alone: did not show any induction of COX 2 protein
[1]; pretreated 3 h, TNF 0.1 nM or SA-LPS 100 ng/ml 12 h
  TNF or LPS induced COX-2 protein expression: decreased with increasing concentration of CAMVE treatment
[2]
  expression of cyclin D1 m-RNA: notably decreased
